melting point [°C]	Compound
249 to 251	O=C1CCC(N2C(=O)c3cccc(OCc4cccc(Cl)c4)c3C2=O)C(=O)N1 (stereo not drawn) [Example 4, 4-(3-Chloro-benzyloxy)-2-(2,6-dioxo-piperidin-3-yl)-isoindole-1,3-dione]
239 to 241	O=C1CCC(N2C(=O)c3cccc(OCc4ccc(Cl)cc4)c3C2=O)C(=O)N1 (stereo not drawn) [Example 5, 4-(4-Chloro-benzyloxy)-2-(2,6-dioxo-piperidin-3-yl)-isoindole-1,3-dione]
245 to 247	O=C1CCC(N2C(=O)c3cccc(OCc4ccc(Cl)c(Cl)c4)c3C2=O)C(=O)N1 (stereo not drawn) [Example 6, 4-(3,4-Dichloro-benzyloxy)-2-(2,6-dioxo-piperidin-3-yl)-isoindole-1,3-dione]
278 to 280	O=C1CCC(N2C(=O)c3cccc(OCc4cc(Cl)cc(Cl)c4)c3C2=O)C(=O)N1 (stereo not drawn) [Example 7, 4-(3,5-Dichloro-benzyloxy)-2-(2,6-dioxo-piperidin-3-yl)-isoindole-1,3-dione]
241 to 243	O=C1CCC(N2C(=O)c3cccc(OCc4cccc(F)c4)c3C2=O)C(=O)N1 (stereo not drawn) [Example 8, 4-(3-Fluoro-benzyloxy)-2-(2,6-dioxo-piperidin-3-yl)-isoindole-1,3-dione]
246 to 248	O=C1CCC(N2C(=O)c3cccc(OCc4cccc(Br)c4)c3C2=O)C(=O)N1 (stereo not drawn) [Example 9, 4-(3-Bromo-benzyloxy)-2-(2,6-dioxo-piperidin-3-yl)-isoindole-1,3-dione]
195 to 197	Cc1cccc(COc2cccc3c2C(=O)N(C2CCC(=O)NC2=O)C3=O)c1 (stereo not drawn) [Example 10, 2-(2,6-Dioxo-piperidin-3-yl)-4-(3-methyl-benzyloxy)-isoindole-1,3-dione]
293 to 295	CS(=O)(=O)c1ccc(COc2cccc3c2C(=O)N(C2CCC(=O)NC2=O)C3=O)cc1 (stereo not drawn) [Example 11, 2-(2,6-Dioxo-piperidin-3-yl)-4-(4-methanesulfonyl-benzyloxy)-isoindole-1,3-dione]
197 to 201	COc1cccc(COc2cccc3c2C(=O)N(C2CCC(=O)NC2=O)C3=O)c1 (stereo not drawn) [Example 12, 2-(2,6-Dioxo-piperidin-3-yl)-4-(3-methoxy-benzyloxy)-isoindole-1,3-dione]
229 to 231	O=C1CCC(N2C(=O)c3cccc(OCc4ccc5c(c4)OCO5)c3C2=O)C(=O)N1 (stereo not drawn) [Example 13, 4-(Benzo[1,3]dioxol-5-ylmethoxy)-2-(2,6-dioxo-piperidin-3-yl)-isoindole-1,3-dione]
> 260	O=C1CCC(N2C(=O)c3cccc(OCc4ccc5ccccc5c4)c3C2=O)C(=O)N1 (stereo not drawn) [Example 14, 2-(2,6-Dioxo-piperidin-3-yl)-(naphthalene-2-ylmethoxy)-isoindole-1,3-dione]
263 to 265	O=C1CCC(N2C(=O)c3cccc(OCc4cnc5ccccc5c4)c3C2=O)C(=O)N1 (stereo not drawn) [Example 15, 2-(2,6-Dioxo-piperidin-3-yl)-4-(quinolin-3-ylmethoxy)-isoindole-1,3-dione]
254 to 256	O=C1CCC(N2C(=O)c3cccc(OCc4ccc5ccccc5n4)c3C2=O)C(=O)N1 (stereo not drawn) [Example 16, 2-(2,6-Dioxo-piperidin-3-yl)-(quinolin-2-ylmethoxy)-isoindole-1,3-dione]
234 to 236	O=C1CCC(N2C(=O)c3cccc(OCc4cc5ccccc5o4)c3C2=O)C(=O)N1 (stereo not drawn) [Example 17, 4-(Benzofuran-2-ylmethoxy)-2-(2,6-dioxo-piperidin-3-yl)-isoindole-1,3-dione]
247 to 249	O=C1CCC(N2C(=O)c3cccc(OCc4cc5ccccc5s4)c3C2=O)C(=O)N1 (stereo not drawn) [Example 18, 4-(Benzo[b]thiophen-2-ylmethoxy)-2-(2,6-dioxo-piperidin-3-yl)-isoindole-1,3-dione]
184 to 186	O=C1CCC(N2C(=O)c3cccc(OCc4ccco4)c3C2=O)C(=O)N1 (stereo not drawn) [Example 19, 2-(2,6-Dioxo-piperidin-3-yl)-4-(furan-2-ylmethoxy)-isoindole-1,3-dione]
240 to 242	O=C1CCC(N2C(=O)c3cccc(OCc4sc5ccccc5c4Cl)c3C2=O)C(=O)N1 (stereo not drawn) [Example 20, 4-(3-Chloro-benzo[b]thiophen-2-ylmethoxy)-2-(2,6-dioxo-piperidin-3-yl)-isoindole-1,3-dione]
264 to 266	O=C1CCC(N2C(=O)c3cccc(OCc4cc5c(F)cccc5s4)c3C2=O)C(=O)N1 (stereo not drawn) [Example 21, 2-(2,6-Dioxo-piperidin-3-yl)-4-(4-fluoro-benzo[b]thiophen-2-ylmethoxy)-isoindole-1,3-dione]
217 to 219	O=C1CCC(N2C(=O)c3cccc(OCc4ccc(Cl)s4)c3C2=O)C(=O)N1 (stereo not drawn) [Example 22]
174 to 176	CC(Oc1cccc2c1C(=O)N(C1CCC(=O)NC1=O)C2=O)c1ccc2ccccc2c1 (stereo not drawn) [Example 23, 2-(2,6-Dioxo-piperidin-3-yl)-4-(1-naphthalen-2-yl-ethoxy)-isoindole-1,3-dione]
178 to 180	COc1ccc(COc2cccc3c2C(=O)N(C2CCC(=O)NC2=O)C3=O)cc1 (stereo not drawn) [Example 24, 2-(2,6-Dioxo-piperidin-3-yl)-4-(4-methoxy-benzyloxy)-isoindole-1,3-dione]

— US10385037B2, “4′-O-substituted isoindoline derivatives and compositions comprising and methods of using the same” (Celgene Corporation, priority 2007, dated 2019)
